From patent US9969742B2, “Imidazotriazinone compounds” (Ironwood Pharmaceuticals, Inc., priority 2012, dated 2018)
Like-named read-outs stand apart in the source and are kept apart here.

Key:
Type in all cases: biochemical
PDE1A = target: T1, PDE1A (Homo sapiens, UniProt P54750); assay: Phosphodiesterase enzyme screening assay, PDE1A; conditions: value greater than 1 indicates greater selectivity for PDE9A2
T1 construct: purchased Reaction Biology Corporation, Malvern, Pa
Procedure, shortened: (§1)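 Reaction started by adding substrate (4.0 μM cGMP) to recombinant human enzyme in HEPES pH 7.5 buffer with MgCl2, DTT and Brij; 1 h at room temperature; quenched with EDTA-containing stop buffer; product and substrate resolved electrophoretically and quantified by fluorescence relative to uninhibited controls.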

PDE1B = target: T2, PDE1B (Homo sapiens, UniProt Q01064); assay: Phosphodiesterase enzyme screening assay, PDE1B; conditions: value greater than 1 indicates greater selectivity for PDE9A2
T2 construct: purchased Reaction Biology Corporation, Malvern, Pa
Procedure, shortened: as §1

PDE9A2 = target: T3, PDE9A2 (Homo sapiens, UniProt O76083); assay: Phosphodiesterase enzyme screening assay, PDE9A2; conditions: read-out: Band (PDE9A2 IC50)
T3 construct: purchased Reaction Biology Corporation, Malvern, Pa
Procedure, shortened: as §1

[1] = ratio of IC50 values PDE1A / PDE9A2
[2] = ratio of IC50 values PDE1B / PDE9A2
[3] = 4.0 μM cGMP substrate, 1 hour at R.T.
[4] = ratio of IC50 values, PDE1A versus PDE9A2
[5] = ratio of IC50 values, PDE1B versus PDE9A2

T1 sequence (P54750 whole entry): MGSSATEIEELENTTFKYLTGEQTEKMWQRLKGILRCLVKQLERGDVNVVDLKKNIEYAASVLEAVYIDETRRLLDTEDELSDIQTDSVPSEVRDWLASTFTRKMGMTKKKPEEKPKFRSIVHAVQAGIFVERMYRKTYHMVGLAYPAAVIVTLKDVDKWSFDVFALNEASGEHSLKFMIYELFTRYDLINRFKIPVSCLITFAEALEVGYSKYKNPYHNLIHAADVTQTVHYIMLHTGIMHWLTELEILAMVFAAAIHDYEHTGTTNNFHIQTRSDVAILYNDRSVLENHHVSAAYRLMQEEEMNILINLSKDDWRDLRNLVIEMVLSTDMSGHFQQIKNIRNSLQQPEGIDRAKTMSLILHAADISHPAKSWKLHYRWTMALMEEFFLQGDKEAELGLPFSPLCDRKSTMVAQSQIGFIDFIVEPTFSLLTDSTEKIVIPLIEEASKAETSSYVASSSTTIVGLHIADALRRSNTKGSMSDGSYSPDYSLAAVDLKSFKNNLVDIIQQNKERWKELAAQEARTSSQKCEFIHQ
T2 sequence (Q01064 whole entry): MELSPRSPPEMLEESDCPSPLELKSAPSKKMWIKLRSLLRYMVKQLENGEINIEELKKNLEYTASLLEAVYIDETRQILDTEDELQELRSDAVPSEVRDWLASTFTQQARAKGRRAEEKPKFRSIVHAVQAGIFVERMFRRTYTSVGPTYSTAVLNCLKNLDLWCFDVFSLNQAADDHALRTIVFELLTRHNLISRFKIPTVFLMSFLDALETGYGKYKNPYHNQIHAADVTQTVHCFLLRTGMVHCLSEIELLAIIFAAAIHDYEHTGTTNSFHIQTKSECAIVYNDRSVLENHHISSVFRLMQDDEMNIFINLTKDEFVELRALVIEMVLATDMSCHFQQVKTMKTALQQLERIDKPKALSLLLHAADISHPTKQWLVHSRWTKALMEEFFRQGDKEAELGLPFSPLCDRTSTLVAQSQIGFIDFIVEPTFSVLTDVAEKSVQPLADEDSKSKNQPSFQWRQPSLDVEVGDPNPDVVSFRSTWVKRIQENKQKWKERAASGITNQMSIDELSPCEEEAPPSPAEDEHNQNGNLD
T3 sequence (O76083 1-533 isoform O76083-2): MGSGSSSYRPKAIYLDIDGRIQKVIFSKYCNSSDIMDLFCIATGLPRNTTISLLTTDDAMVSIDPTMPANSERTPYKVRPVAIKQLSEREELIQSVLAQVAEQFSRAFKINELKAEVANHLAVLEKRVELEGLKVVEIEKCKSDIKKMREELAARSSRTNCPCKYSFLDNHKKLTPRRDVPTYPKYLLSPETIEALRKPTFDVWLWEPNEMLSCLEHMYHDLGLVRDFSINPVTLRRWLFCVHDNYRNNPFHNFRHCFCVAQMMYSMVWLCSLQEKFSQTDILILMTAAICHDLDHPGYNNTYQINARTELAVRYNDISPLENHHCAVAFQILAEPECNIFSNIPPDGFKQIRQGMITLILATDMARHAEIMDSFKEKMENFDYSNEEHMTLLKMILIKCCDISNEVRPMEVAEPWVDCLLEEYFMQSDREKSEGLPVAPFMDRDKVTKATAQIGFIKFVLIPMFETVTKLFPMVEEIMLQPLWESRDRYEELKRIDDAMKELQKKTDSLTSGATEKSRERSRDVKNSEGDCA

`CC1CN(Cc2ccccc2)CC1c1nn2c(-c3ccccc3F)ncc2c(=O)[nH]1` (single isomer, unassigned; (+)) [(+)-2-((3,4-trans)-1-benzyl-4-methylpyrrolidin-3-yl)-7-(2-fluorophenyl)imidazo[5,1-f][1,2,4]triazin-4(3H)-one] was tested, and the “PDE1A selectivity (versus PDE9A2)” value (PDE1A; [1]) was 76, the “PDE1B selectivity (versus PDE9A2)” value (PDE1B; [2]) was 83 and the IC50 (PDE9A2; [3]) was < 1000 nM.
In the case of `CC1CN(Cc2ccccc2)CC1c1nn2c(-c3cccc(F)c3)ncc2c(=O)[nH]1` (single isomer, unassigned; (+)) [(+)-2-((3,4-trans)-1-benzyl-4-methylpyrrolidin-3-yl)-7-(3-fluorophenyl)imidazo[5,1-f][1,2,4]triazin-4(3H)-one], the “PDE1A selectivity (versus PDE9A2)” value (PDE1A; [4]) is reported as 70, the “PDE1B selectivity (versus PDE9A2)” value (PDE1B; [5]) is reported as 113 and the IC50 (PDE9A2) is reported as < 1000 nM.
With `Cc1cnccc1-c1ncc2c(=O)[nH]c(C3CN(Cc4ccccc4)CC3C)nn12` (single isomer, unassigned; (+)) [(+)-2-((3,4-trans)-1-benzyl-4-methylpyrrolidin-3-yl)-7-(3-methylpyridin-4-yl) imidazo [5,1-f] [1,2,4] triazin-4 (3H)-one] the “PDE1A selectivity (versus PDE9A2)” value (PDE1A; [1]) was 167, the “PDE1B selectivity (versus PDE9A2)” value (PDE1B; [2]) was 144 and the IC50 (PDE9A2; [3]) was < 1000 nM.
`CC1CN(Cc2ccccc2)CC1c1nn2c(C3CCC(F)(F)CC3)ncc2c(=O)[nH]1` (single isomer, unassigned; (+)) [(+)-2-((3,4-trans)-1-benzyl-4-methylpyrrolidin-3-yl)-7-(4,4-difluorocyclohexyl)imidazo[5,1-f][1,2,4]triazin-4(3H)-one] was tested, and the “PDE1A selectivity (versus PDE9A2)” value (PDE1A; Table 1, ratio of IC50 values) was 309, the “PDE1B selectivity (versus PDE9A2)” value (PDE1B; Table 1, ratio of IC50 values) was 496 and the IC50 (PDE9A2; Table 1, 10 concentrations, 4.0 μM cGMP substrate, 1 hour at R.T.) was < 1000 nM.
`Cc1cc(F)c(F)cc1-c1ncc2c(=O)[nH]c(C3CN(Cc4ccccc4)CC3C)nn12` (single isomer, unassigned; (+)) [(+)-2-((3,4-trans)-1-benzyl-4-methylpyrrolidin-3-yl)-7-(4,5-difluoro-2-methylphenyl)imidazo[5,1-f][1,2,4]triazin-4(3H)-one] was tested, and the “PDE1A selectivity (versus PDE9A2)” value (PDE1A; [4]) was 174, the “PDE1B selectivity (versus PDE9A2)” value (PDE1B; [5]) was 143 and the IC50 (PDE9A2) was < 1000 nM.
In the case of `CC1CN(Cc2ccccc2)CC1c1nn2c(-c3ccc(F)cc3)ncc2c(=O)[nH]1` (single isomer, unassigned; (+)) [(+)-2-((3,4-trans)-1-benzyl-4-methylpyrrolidin-3-yl)-7-(4-fluorophenyl)imidazo[5,1-f][1,2,4]triazin-4(3H)-one], the “PDE1A selectivity (versus PDE9A2)” value (PDE1A; [4]) is reported as 220, the “PDE1B selectivity (versus PDE9A2)” value (PDE1B; [5]) is reported as 286 and the IC50 (PDE9A2) is reported as < 1000 nM.
`Cc1ccncc1-c1ncc2c(=O)[nH]c(C3CN(Cc4ccccc4)CC3C)nn12` (single isomer, unassigned; (+)) [(+)-2-((3,4-trans)-1-benzyl-4-methylpyrrolidin-3-yl)-7-(4-methylpyridin-3-yl)imidazo[5,1-f][1,2,4]triazin-4(3H)-one] was tested, and the “PDE1A selectivity (versus PDE9A2)” value (PDE1A; [4]) was 148, the “PDE1B selectivity (versus PDE9A2)” value (PDE1B; [5]) was 379 and the IC50 (PDE9A2) was < 1000 nM.
`Cc1ccccc1-c1ncc2c(=O)[nH]c(C3CN(Cc4ccccc4)CC3C)nn12` (single isomer, unassigned; (+)) [(+)-2-((3,4-trans)-1-benzyl-4-methylpyrrolidin-3-yl)-7-(o-tolyl)imidazo[5,1-f][1,2,4]triazin-4(3H)-one] was tested, and the “PDE1A selectivity (versus PDE9A2)” value (PDE1A; [4]) was 461, the “PDE1B selectivity (versus PDE9A2)” value (PDE1B; [5]) was 531 and the IC50 (PDE9A2) was < 1000 nM.
In the case of `CCC(CC)c1ncc2c(=O)[nH]c(C3CN(Cc4ccccc4)CC3C)nn12` (single isomer, unassigned; (+)) [(+)-2-((3,4-trans)-1-benzyl-4-methylpyrrolidin-3-yl)-7-(pentan-3-yl)imidazo[5,1-f][1,2,4]triazin-4(3H)-one], the “PDE1A selectivity (versus PDE9A2)” value (PDE1A; [4]) is reported as 175, the “PDE1B selectivity (versus PDE9A2)” value (PDE1B; [5]) is reported as 86 and the IC50 (PDE9A2) is reported as < 1000 nM.
With `CC1CN(Cc2ccccc2)CC1c1nn2c(-c3ccccc3)ncc2c(=O)[nH]1` (single isomer, unassigned; (+)) [(+)-2-((3,4-trans)-1-benzyl-4-methylpyrrolidin-3-yl)-7-phenylimidazo[5,1-f][1,2,4]triazin-4(3H)-one] the “PDE1A selectivity (versus PDE9A2)” value (PDE1A; [4]) was 4, the “PDE1B selectivity (versus PDE9A2)” value (PDE1B; [5]) was 12 and the IC50 (PDE9A2) was < 1000 nM.
